Test results reported in the supplement of paper PMC10307832.

Experiments:
Assay in all cases: relative viability (nuclei count vs DMSO), 5 days (fraction); higher = more cells survive
Ponatinib + Linsitinib = compound: Cc1ccc(C(=O)Nc2ccc(CN3CCN(C)CC3)c(C(F)(F)F)c2)cc1C#Cc1cnc2cccnn12 [Ponatinib] + C[C@]1(O)C[C@@H](c2nc(-c3ccc4ccc(-c5ccccc5)nc4c3)c3c(N)nccn32)C1 [Linsitinib] (partner 1 µM)
In short: (§1)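 A single step with final 0.05% Triton X-100, 1% formaldehyde and 1 ug/ml Hoechst fixed the cells and stained nuclei 5 days after treatment. Lung cancer cell lines in 1536-well plates had been treated by pin tool the day after seeding with one drug alone or a fixed anchor-drug dose plus five library-drug doses (not always all listed) in √10 steps, and nuclei were counted on 4× images. Relative viability is the ratio of nuclei in treated wells to nuclei in vehicle wells, taken as the median of duplicate plates.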

Pazopanib + Palbociclib = compound: Cc1ccc(Nc2nccc(N(C)c3ccc4c(C)n(C)nc4c3)n2)cc1S(N)(=O)=O [Pazopanib] + CC(=O)c1c(C)c2cnc(Nc3ccc(N4CCNCC4)cn3)nc2n(C2CCCC2)c1=O [Palbociclib] (partner 0.5 µM)
In short: as §1

Ponatinib + Bortezomib = compound: Cc1ccc(C(=O)Nc2ccc(CN3CCN(C)CC3)c(C(F)(F)F)c2)cc1C#Cc1cnc2cccnn12 [Ponatinib] + CC(C)C[C@H](NC(=O)[C@H](Cc1ccccc1)NC(=O)c1cnccn1)B(O)O [Bortezomib] (partner 0.002 µM)
In short: as §1

Pazopanib + Dasatinib = compound: Cc1ccc(Nc2nccc(N(C)c3ccc4c(C)n(C)nc4c3)n2)cc1S(N)(=O)=O [Pazopanib] + Cc1nc(Nc2ncc(C(=O)Nc3c(C)cccc3Cl)s2)cc(N2CCN(CCO)CC2)n1 [Dasatinib] (partner 0.075 µM)
In short: as §1

Cell Line	relative viability (Ponatinib + Linsitinib; first compound 0.002 µM)	relative viability (Ponatinib + Linsitinib; first compound 0.006325 µM)	relative viability (Ponatinib + Linsitinib; first compound 0.06325 µM)	relative viability (Ponatinib + Linsitinib; first compound 0.2 µM)	relative viability (Pazopanib + Palbociclib; first compound 0.01 µM)	relative viability (Pazopanib + Palbociclib; first compound 0.03162 µM)	relative viability (Pazopanib + Palbociclib; first compound 0.1 µM)	relative viability (Pazopanib + Palbociclib; first compound 0.3162 µM)	relative viability (Pazopanib + Palbociclib; first compound 1 µM)	relative viability (Ponatinib + Bortezomib; first compound 0.002 µM)	relative viability (Ponatinib + Bortezomib; first compound 0.006325 µM)	relative viability (Ponatinib + Bortezomib; first compound 0.06325 µM)	relative viability (Ponatinib + Bortezomib; first compound 0.2 µM)	relative viability (Pazopanib + Dasatinib; first compound 0.01 µM)	relative viability (Pazopanib + Dasatinib; first compound 0.03162 µM)	relative viability (Pazopanib + Dasatinib; first compound 0.1 µM)	relative viability (Pazopanib + Dasatinib; first compound 0.3162 µM)	relative viability (Pazopanib + Dasatinib; first compound 1 µM)
HCC-44	0.657	0.71	0.744	0.683	0.921	0.932	0.943	0.982	0.948	0.825	0.804	1.07	0.872	–	–	–	–	–
HCC-78	0.412	0.519	0.605	0.478	0.465	0.511	0.4	0.462	0.432	0.476	0.48	0.62	0.421	0.328	0.383	0.362	0.429	0.339
HCC-366	0.699	0.701	1.02	0.606	0.36	0.422	0.449	0.386	0.353	1.04	1.13	1.14	0.982	0.421	0.655	0.762	0.676	0.733
HCC-827	1.03	0.968	1.03	0.966	0.558	0.456	0.516	0.444	0.471	1	1.01	1.05	0.982	0.286	0.27	0.284	0.399	0.324
IA-LM	0.538	0.512	0.529	0.535	–	–	–	–	–	0.695	0.623	0.785	0.79	–	–	–	–	–
LK-2	0.599	0.623	0.592	0.351	0.615	0.803	0.69	0.709	0.729	–	–	–	–	–	0.305	0.317	0.373	0.314
NCI-H358	0.847	0.771	0.758	0.522	0.134	0.141	0.121	0.112	0.122	–	–	–	–	0.157	0.152	0.158	–	0.258
NCI-H522	–	–	–	–	0.973	0.97	1.05	0.887	0.883	–	–	–	–	0.614	0.865	0.968	0.897	0.918
NCI-H596	1.03	1.01	1.08	0.792	–	–	–	–	–	0.88	0.959	0.905	0.829	–	0.617	0.454	0.6	0.575
NCI-H1299	0.915	0.948	0.971	0.951	–	–	–	–	–	1.05	1	1.06	0.993	–	–	–	–	–
NCI-H1395	–	1.05	0.915	0.832	0.572	0.647	0.659	0.6	0.625	–	–	–	–	0.398	0.487	0.362	0.452	0.432
NCI-H1563	1.22	1.26	1.21	1.1	–	–	–	–	–	0.773	0.847	0.836	0.571	0.473	0.451	0.471	0.485	0.5
NCI-H1623	–	–	–	–	–	–	–	–	–	–	–	–	–	0.507	0.467	0.509	0.488	0.608
NCI-H1648	–	–	–	–	–	–	0.229	0.281	0.279	–	–	–	–	–	–	–	–	–
NCI-H1650	–	–	–	–	0.333	0.433	0.375	0.349	0.393	0.216	0.193	0.227	0.222	0.301	0.375	0.381	0.319	0.403
NCI-H1703	0.641	0.827	0.364	0.25	–	–	–	–	–	0.296	0.261	0.26	0.143	–	–	–	–	–
NCI-H1793	0.815	0.924	0.964	0.762	–	0.352	0.3	0.341	0.399	–	–	–	–	–	0.357	0.412	0.372	0.533
NCI-H1944	1.14	1.29	1.41	1.22	0.287	0.357	0.33	0.332	0.41	–	–	–	–	–	0.226	0.226	0.237	0.247
NCI-H2170	–	–	–	–	0.353	0.387	0.445	0.399	0.393	–	–	–	–	0.536	0.572	0.537	0.511	0.639
NCI-H2342	–	–	–	–	0.538	0.501	0.496	0.489	0.515	–	–	–	–	0.303	0.339	0.305	0.297	0.278
SK-MES-1	0.99	1.12	1.12	1.07	0.334	0.352	0.322	0.36	0.304	–	–	–	–	0.361	0.34	0.414	0.474	0.383
SW 900	–	–	–	–	0.463	0.636	–	0.65	0.595	–	–	–	–	0.539	0.731	0.596	0.66	0.543
